Earlier results, collected in patent US20200101029A1, “METHOD AND SYSTEM FOR PRESERVING COGNITIVE CAPACITY DURING AGING” (priority 2018, published 2020).
Read-outs that look alike come from different tables or passages of the source.

Tests used:
[1] = 1 gram per day (500 mg twice daily)
[2] = murine models
[3] = human cohort study
[4] = system: genetically-engineered fly; conditions: spermidine feeding during all their lives
[5] = system: mice exposed to bleomycin
[6] = system: rat model of Alzheimer's disease

## O=c1c(O)c(-c2ccc(O)c(O)c2)oc2cc(O)cc(O)c12 [quercetin]
[1]
  patients with improvement of symptoms of at least 25 percent: more than 67%
  tolerability: well tolerated

## NCCCCNCCCN [spermidine]
[2]
  safety and tolerability of supplementation: safe and excellently tolerated
[3]
  safety and tolerability of supplementation: safe and excellently tolerated
[4]
  aging-associated abnormal protein (excess presynaptic vesicles in olfactory neurons): prevented
  fly memory over aging: preserved over aging
[5]; pre-treatment with spermidine
  accumulation of damaging protein in the mouse lung: could reduce or prevent
[5]; subsequent dosing, even at higher dose
  removal of established scar tissue in the lung: did not remove it

## Bifidobacterium
[6]
  effect on memory deficit: improving memory deficit
